From article doi:10.1101/737510v1 (biorxiv, 2019)

Assays:
Type in all cases: binding
[1] = biological target: DCAF15-DDB1-DDA1 with RBM39(Δ150) (Homo sapiens, UniProt Q14498+Q66K64); test: TR-FRET ternary complex recruitment assay
RBM39(Δ150) = biological target: T1, RBM39(Δ150) (Homo sapiens, UniProt Q14498); test: isothermal titration calorimetry
T1 sequence (Q14498 151-530): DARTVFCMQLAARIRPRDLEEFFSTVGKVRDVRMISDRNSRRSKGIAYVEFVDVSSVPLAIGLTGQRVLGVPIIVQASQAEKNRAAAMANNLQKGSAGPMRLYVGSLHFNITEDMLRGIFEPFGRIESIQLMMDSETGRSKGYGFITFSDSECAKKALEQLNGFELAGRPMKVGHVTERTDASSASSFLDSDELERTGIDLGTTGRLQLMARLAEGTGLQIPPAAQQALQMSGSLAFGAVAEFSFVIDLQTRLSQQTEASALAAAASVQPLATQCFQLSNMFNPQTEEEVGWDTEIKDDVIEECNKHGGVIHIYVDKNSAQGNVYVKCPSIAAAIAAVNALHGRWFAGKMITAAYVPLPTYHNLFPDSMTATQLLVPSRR

[2] = biological target: DCAF15-DDB1(ΔBPB)-DDA1 and RBM39(Δ150) mixture (Homo sapiens, UniProt Q14498+Q66K64); test: isothermal titration calorimetry
DCAF15-DDB1(ΔBPB)-DDA1 = DCAF15-DDB1(ΔBPB)-DDA1 (Homo sapiens, UniProt Q66K64); test: isothermal titration calorimetry

With `Cc1c[nH]c2c(NS(=O)(=O)c3ccc(S(N)(=O)=O)cc3)cccc12` [compound 1, N-(3-methyl-1H-indol-7-yl)benzene-1,4-disulfonamide] the EC50 [1] was 14.3 µM.

`Cc1c[nH]c2c(NS(=O)(=O)c3ccc(S(=O)(=O)N(C)C)cc3)cccc12` [compound 4, N^1,N^1-dimethyl-N^4-(3-methyl-1H-indol-7-yl)benzene-1,4-disulfonamide] showed an EC50 [1] of 12.3 µM.

With `Cc1ccc(NS(=O)(=O)c2ccc(N)cc2)c2[nH]cc(C#N)c12` [compound 6, Compound 6] the EC50 [1] was 3.82 µM.

Compound `N#Cc1c[nH]c2c(NS(=O)(=O)c3ccc(S(N)(=O)=O)cc3)cccc12` [compound 2, N-(3-cyano-1H-indol-7-yl)benzene-1,4-disulfonamide] has an EC50 [1] of 1.21 µM.

Work on `NS(=O)(=O)c1ccc(S(=O)(=O)Nc2cccc3c(Cl)c[nH]c23)cc1` [Indisulam] yielded an EC50 [1] of 3.4 µM, a Kd (RBM39(Δ150)) of over 50 µM and a Kd [2] of 0.187 µM. For the same compound, the Kd (DCAF15-DDB1(ΔBPB)-DDA1) was about 17 µM.

Work on `NS(=O)(=O)c1ccc(S(=O)(=O)Nc2cccc3cc[nH]c23)cc1` [compound 3, N-(1H-indol-7-yl)benzene-1,4-disulfonamide] yielded an EC50 [1] of over 50 µM.

`O=S(=O)(Nc1cccc2c(Cl)c[nH]c12)c1ccccc1` [compound 5, N-(3-chloro-1H-indol-7-yl)benzenesulfonamide] showed an EC50 [1] of 38.1 µM.

Compound `Cc1ccc(NS(=O)(=O)c2ccc(CN)cc2)c2[nH]cc(C#N)c12` [compound 7, 4-(aminomethyl)-N-(3-cyano-4-methyl-1H-indol-7-yl)benzenesulfonamide] has an EC50 [1] of 2.38 µM.
